# Reference: US8436023B2, “Cyclohexyl-azetidinyl antagonists of CCR2” (Janssen Pharmaceutica N.V., priority 2010, dated 2013)
# Where a name gives a salt, the structure may show the parent alone.
# Molecular target: T1, CCR2 (Homo sapiens, UniProt P41597)
# T1 construct: host or cells: THP-1 human monocytic cells
# T1 sequence (P41597 1-360 isoform P41597-2): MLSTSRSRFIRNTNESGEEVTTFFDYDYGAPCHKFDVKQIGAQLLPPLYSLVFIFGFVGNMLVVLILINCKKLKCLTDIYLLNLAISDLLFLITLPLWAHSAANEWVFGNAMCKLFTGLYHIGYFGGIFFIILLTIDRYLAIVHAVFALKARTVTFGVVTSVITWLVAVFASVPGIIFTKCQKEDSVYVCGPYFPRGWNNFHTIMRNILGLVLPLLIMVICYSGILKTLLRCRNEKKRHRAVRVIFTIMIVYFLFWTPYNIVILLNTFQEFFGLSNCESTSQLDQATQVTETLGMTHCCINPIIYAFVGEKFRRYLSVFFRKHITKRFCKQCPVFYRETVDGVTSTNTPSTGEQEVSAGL
# Experiment: MCP-1 Receptor Binding Assay in THP-1 Cells
# Settings: 0.5 nM 125I labeled MCP-1, 2 hours at 30° C., less polar isomer tested where stated, read-out: Inhibition of MCP-1 Binding IC50, CCR2 Binding
# Description: MCP-1 Receptor Binding Assay in THP-1 Cells
# Human monocytic cell line THP-1 cells were obtained from American Type Culture Collection (Manassas, Va., USA). The THP-1 cells were grown in RPMI-1640 (RPMI: Roswell Park Memorial Institute Medium-cell culture growth media) supplemented with 10% fetal bovine serum in a humidified 5% CO2 atmosphere at 37° C. The cell density was maintained […].
# THP-1 (cells were incubated with 0.5 nM ^125I labeled MCP-1 (Perkin-Elmer Life Sciences, Inc. Boston, Mass.) in the presence of varying concentrations of either unlabeled MCP-1 (R & D Systems, Minneapolis, Minn.) or test compound for 2 hours at 30° C. in a 96 well plate. Cells were then harvested onto a filter plate, dried, and 20 μL of Microscint 20 was added to each well. Plates were counted in a TopCount NXT, Microplate Scintillation & Luminescence Counter (Perkin-Elmer Life Sciences, Inc. Boston, Mass.). Blank values (buffer only) were subtracted from all values and drug treated values were compared to vehicle treated values. 1 μM cold MCP-1 was used for nonspecific binding.
# Where an IC50 value was not obtained for a particular compound, the percent inhibition is provided at a test concentration of 25 μM.
row,SMILES,IC50
1,"CCc1ncc(C2(O)CCC(N3CC(NC(=O)CNc4nn(C)c5ccc(C(F)(F)F)cc45)C3)CC2)s1 (stereo not drawn) [Example 23, N-{1-[4-(2-Ethyl-thiazol-5-yl)-4-hydroxy-cyclohexyl]-azetidin-3-yl}-2-(1-methyl-5-trifluoromethyl-1H-indazol-3-ylamino)-acetamide]",180 nM
2,"COc1ccc(C2(O)CCC(N3CC(NC(=O)CNc4nn(C)c5ccc(C(F)(OC)C(F)(F)F)cc45)C3)CC2)cn1 (stereo not drawn) [Example 102, N-{1-[4-Hydroxy-4-(6-methoxy-pyridin-3-yl)-cyclohexyl]-azetidin-3-yl}-2-[1-methyl-5-(1,2,2,2-tetrafluoro-1-methoxy-ethyl)-1H-indazol-3-ylamino]-acetamide]",33 nM
3,"CCOC(=O)C1CCC(N2CC(NC(=O)CNc3noc4ccc(C(F)(F)F)cc34)C2)CC1 (stereo not drawn) [Example 6, 4-{3-[2-(5-Trifluoromethyl-benzo[d]isoxazol-3-ylamino)-acetylamino]-azetidin-1-yl}-cyclohexanecarboxylic acid ethyl ester]",29 nM
4,"Cn1nc(NCC(=O)NC2CN(C3CCC(c4ccc5c(c4)OCO5)CC3)C2)c2cc(C(O)C(F)(F)F)ccc21 (stereo not drawn) [Example 64, N-[1-(4-Benzo[1,3]dioxol-5-yl-cyclohexyl)-azetidin-3-yl]-2-[1-methyl-5-(2,2,2-trifluoro-1-hydroxy-ethyl)-1H-indazol-3-ylamino]-acetamide]",300 nM
5,"CC(C)(C)[Si](C)(C)OC1CCC(N2CC(NC(=O)CNc3noc4ccc(C(F)(F)F)cc34)C2)CC1 (stereo not drawn) [Example 8, N-{1-[4-(tert-Butyl-dimethyl-silanyloxy)-cyclohexyl]-azetidin-3-yl}-2-(5-trifluoromethyl-benzo[d]isoxazol-3-ylamino)-acetamide]",7700 nM
6,"Cn1cc(C2(O)CCC(N3CC(NC(=O)CNc4nn(C)c5ccc(C(F)(F)F)cc45)C3)CC2)cn1 (stereo not drawn) [Example 25, N-{1-[4-Hydroxy-4-(1-methyl-1H-pyrazol-4-yl)-cyclohexyl]-azetidin-3-yl}-2-(1-methyl-5-trifluoromethyl-1H-indazol-3-ylamino)-acetamide]",200 nM
7,"CCOC(=O)C1CCC(N2CC(NC(=O)CNc3nn(C)c4ccc(C(O)C(F)(F)F)cc34)C2)CC1 (stereo not drawn) [Example 60, 4-(3-{2-[1-Methyl-5-(2,2,2-trifluoro-1-hydroxy-ethyl)-1H-indazol-3-ylamino]-acetylamino}-azetidin-1-yl)-cyclohexanecarboxylic acid ethyl ester]",2090 nM
8,Cc1ccc(C2(O)CCC(N3CC(NC(=O)CNc4nn(C)c5ccc(OCC(F)(F)F)cc45)C3)CC2)cn1 (stereo not drawn) [Example 101],1100 nM
9,"C=CCn1nc(NCC(=O)NC2CN(C3CCC(C4CCCCC4)CC3)C2)c2cc(C(F)(F)F)ccc21 (stereo not drawn) [Example 95, 2-(1-Allyl-5-trifluoromethyl-1H-indazol-3-ylamino)-N-(1-bicyclohexyl-4-yl-azetidin-3-yl)-acetamide]",3600 nM
10,"O=C(CNc1noc2ccc(C(F)(F)F)cc12)NC1CN(C2CCC(c3ccc4c(c3)OCO4)CC2)C1 (stereo not drawn) [Example 1, N-[1-(4-Benzo[1,3]dioxol-5-yl-cyclohexyl)-azetidin-3-yl]-2-(5-trifluoromethyl-benzo[d]isoxazol-3-ylamino)-acetamide]",36 nM
11,"COc1ccc(C2(O)CCC(N3CC(NC(=O)CNc4n[nH]c5ccc(C(F)(F)F)cc45)C3)CC2)cn1 (stereo not drawn) [Example 44, N-{1-[4-Hydroxy-4-(6-methoxy-pyridin-3-yl)-cyclohexyl]-azetidin-3-yl}-2-(5-trifluoromethyl-1H-indazol-3-ylamino)-acetamide]",16 nM
12,"CCCC1CCC(N2CC(NC(=O)CNc3noc4ccc(C(F)(F)F)cc34)C2)CC1 (stereo not drawn) [Example 14, N-[1-(4-Propyl-cyclohexyl)-azetidin-3-yl]-2-(5-trifluoromethyl-benzo[d]isoxazol-3-ylamino)-acetamide]",360 nM
13,"N#CC1CCC(N2CC(NC(=O)CNc3noc4ccc(C(F)(F)F)cc34)C2)CC1 (stereo not drawn) [Example 13, N-[1-(4-Cyano-cyclohexyl)-azetidin-3-yl]-2-(5-trifluoromethyl-benzo[d]isoxazol-3-ylamino)-acetamide]",450 nM
14,"CCOC(=O)C1CCC(N2CC(NC(=O)CNc3noc4ccc(OC(F)(F)F)cc34)C2)CC1 (stereo not drawn) [Example 16, 4-{3-[2-(5-Trifluoromethoxy-benzo[d]isoxazol-3-ylamino)-acetylamino]-azetidin-1-yl}-cyclohexanecarboxylic acid ethyl ester]",71 nM
15,"O=C(CNc1n[nH]c2ccc(C(F)(F)F)nc12)NC1CN([C@H]2CC[C@@](O)(c3cncs3)CC2)C1 [Example 104, N-(1-((1R,4R)-4-hydroxy-4-(thiazol-5-yl)cyclohexyl)azetidin-3-yl)-2-((5-(trifluoromethyl)-1H-pyrazolo[4,3-b]pyridin-3-yl)amino)acetamide]",230 nM

# The remaining compounds from weak to strong by IC50, led by results:
row,IC50,SMILES
1,3700 nM,"COc1ccc(C2CCC(N3CC(NC(=O)CNc4nn(S(C)(=O)=O)c5ccc(C(F)(F)F)cc45)C3)CC2)cn1 (stereo not drawn) [Example 100, 2-(1-Methanesulfonyl-5-trifluoromethyl-1H-indazol-3-ylamino)-N-{1-[4-(6-methoxy-pyridin-3-yl)-cyclohexyl]-azetidin-3-yl}-acetamide]"
2,2900 nM,"NC1CCC(N2CC(NC(=O)CNc3noc4ccc(C(F)(F)F)cc34)C2)CC1 (stereo not drawn) [Example 11, N-[1-(4-Amino-cyclohexyl)-azetidin-3-yl]-2-(5-trifluoromethyl-benzo[d]isoxazol-3-ylamino)-acetamide TFA salt]"
3,870 nM,"CC(C)(C)NC(=O)n1nc(NCC(=O)NC2CN(C3CCC(O[Si](C)(C)C(C)(C)C)CC3)C2)c2cc(C(F)(F)F)ccc21 (stereo not drawn) [Example 84, 3-[({1-[4-(tert-Butyl-dimethyl-silanyloxy)-cyclohexyl]-azetidin-3-ylcarbamoyl}-methyl)-amino]-5-trifluoromethyl-indazole-1-carboxylic acid tert-butylamide]"
4,770 nM,"O=C(CNc1noc2ccc(C(F)(F)F)cc12)NC1CN(C2CCC(O)CC2)C1 (stereo not drawn) [Example 9, N-[1-(4-Hydroxy-cyclohexyl)-azetidin-3-yl]-2-(5-trifluoromethyl-benzo[d]isoxazol-3-ylamino)-acetamide]"
5,170 nM,"CC(C)C1CCC(N2CC(NC(=O)CNc3noc4ccc(C(F)(F)F)cc34)C2)CC1 (stereo not drawn) [Example 7, N-[1-(4-Isopropyl-cyclohexyl)-azetidin-3-yl]-2-(5-trifluoromethyl-benzo[d]isoxazol-3-ylamino)-acetamide]"
6,63 nM,"O=C(CNc1n[nH]c2ccc(C(F)(F)F)cc12)NC1CN(C2CCC(n3ccccc3=O)CC2)C1 (stereo not drawn) [Example 53, N-{1-[4-(2-Oxo-2H-pyridin-1-yl)-cyclohexyl]-azetidin-3-yl}-2-(5-trifluoromethyl-1H-indazol-3-ylamino)-acetamide]"
7,56 nM,"CCOC(=O)C1CCC(N2CC(NC(=O)CNc3nn(C(N)=O)c4ccc(C(F)(F)F)cc34)C2)CC1 (stereo not drawn) [Example 89, 4-{3-[2-(1-Carbamoyl-5-trifluoromethyl-1H-indazol-3-ylamino)-acetylamino]-azetidin-1-yl}-cyclohexane carboxylic acid ethyl ester]"
8,34 nM,"CCOc1ccc(C2(O)CCC(N3CC(NC(=O)CNc4nn(C(=O)NC(C)(C)C)c5ccc(C(F)(F)F)cc45)C3)CC2)cn1 (stereo not drawn) [Example 82, 3-[({1-[4-(6-Ethoxy-pyridin-3-yl)-4-hydroxy-cyclohexyl]-azetidin-3-ylcarbamoyl}-methyl)-amino]-5-trifluoromethyl-indazole-1-carboxylic acid tert-butylamide]"
9,31 nM,"O=C(CNc1n[nH]c2ccc(C(F)(F)F)cc12)NC1CN(C2CCC(O)(c3cccnc3)CC2)C1 (stereo not drawn) [Example 41, N-[1-(4-Hydroxy-4-pyridin-3-yl-cyclohexyl)-azetidin-3-yl]-2-(5-trifluoromethyl-1H-indazol-3-ylamino)-acetamide]"
10,28 nM,"Cn1nc(NCC(=O)NC2CN(C3CCC(O)(c4cncs4)CC3)C2)c2cc(C(F)(F)F)ccc21 (stereo not drawn) [Example 21, N-[1-(4-Hydroxy-4-thiazol-5-yl-cyclohexyl)-azetidin-3-yl]-2-(1-methyl-5-trifluoromethyl-1H-indazol-3-ylamino)-acetamide]"
11,22 nM,"CCOc1ccc(C2(O)CCC(N3CC(NC(=O)CNc4nn(C(N)=O)c5ccc(C(F)(F)F)cc45)C3)CC2)cn1 (stereo not drawn) [Example 83, 3-[({1-[4-(6-Ethoxy-pyridin-3-yl)-4-hydroxy-cyclohexyl]-azetidin-3-ylcarbamoyl}-methyl)-amino]-5-trifluoromethyl-indazole-1-carboxylic acid amide]"
12,6.6 nM,"O=C(CNc1n[nH]c2ccc(C(F)(F)F)cc12)NC1CN(C2CCC(c3ccc4c(c3)OCO4)CC2)C1 (stereo not drawn) [Example 45, N-[1-(4-Benzo[1,3]dioxol-5-yl-cyclohexyl)-azetidin-3-yl]-2-(5-trifluoromethyl-1H-indazol-3-ylamino)-acetamide]"
